# In the NIST ThermoML archive (doi:10.1016/j.fluid.2007.07.020):
# Values joined by “and” are separate entries in the source; they are usually repeats but may differ in a detail not shown here. Equal values may be shown once. Numbers after ± are expanded uncertainties.
# Experiments:
# [1] = Molar enthalpy of transition or fusion; details: Crystal; DSC
# [2] = Crystal; DTA
smiles,measurement,setting,value
O=C([O-])Cc1ccccc1Nc1c(Cl)cccc1Cl.[Na+] [sodium diclofenac],Molar enthalpy of transition or fusion,[1],7.6 kcal/mol and 9.5 kcal/mol
same,Normal melting temperature,[2],287 ± 3 °C
